≈ marks a conversion by molar mass, not a printed value.
How the values were obtained:
Oryctolagus cuniculus [1] = organism: Oryctolagus cuniculus
physchem [2] = settings: buffer
Description: Evaluated for sulfonamide pKa, free acid water solubility

physchem [3] = assay: physchem
Description: Compound was evaluated for its solubility in water

Oryctolagus cuniculus [4] = organism: Oryctolagus cuniculus; settings: rabbit, in vivo
Description: Evaluated for first order rate constant (Kin) for transcorneal penetration in anesthetized rabbits

[5] = octanol/water, pH 7.4
Description: Evaluated for lipid solubility measured as partition coefficient at a pH 7.4 (CHCl3/buffer)

Oryctolagus cuniculus [6] = organism: Oryctolagus cuniculus; assay: Evaluated for effect on intraocular pressure(IOP) in rabbit after 1 hour; type: functional, Eye

Description for Carbonic anhydrase: Evaluated for its activity against carbonic anhydrase (CA) in anesthetized rabbits

I50 (Carbonic anhydrase)	SMILES	Effect (Oryctolagus cuniculus [1])	further results
50 nM	COc1cc(=O)nc2sc(S(N)(=O)=O)nn12	0 mmHg	–
37 nM	NS(=O)(=O)c1nn2c(O)cc(=O)nc2s1	–	–
20 nM	NS(=O)(=O)c1nn2c(=O)[nH]c(=O)nc2s1	0 mmHg	pKa (physchem [2]): 8.3; solubility (physchem [3]; water): 4 mM (≈ 997 µg/mL)
20 nM	Cn1c(=O)nc2sc(S(N)(=O)=O)nn2c1=O	-1 mmHg	–

The remaining lines, values behind:

SMILES	I50 (Carbonic anhydrase)	Effect (Oryctolagus cuniculus [1])	further results
CCn1c(=O)nc2sc(S(N)(=O)=O)nn2c1=O	20 nM	0 mmHg	–
NS(=O)(=O)c1nn2c(=O)n(CCCl)c(=O)nc2s1	18 nM	0 mmHg	–
NS(=O)(=O)C1=NN2CCS(=O)(=O)N=C2S1	14 nM	0 mmHg	–
CC(=O)/N=c1/sc(S(N)(=O)=O)nn1C [METHAZOLAMIDE]	–	-0.6 mmHg	Kin (Oryctolagus cuniculus [4]): 0.006 h⁻¹; log D [5]: 0.06; solubility (physchem [3]; buffer): 5 mM (≈ 1180 µg/mL)
Cn1nc(S(N)(=O)=O)s/c1=N\C(=O)C(F)(F)F	–	–	Effect (Oryctolagus cuniculus [6]): -3.1 mmHg; pKa (physchem [2]): 6.6; Kin (Oryctolagus cuniculus [4]): 0.014 h⁻¹; solubility (physchem [3]; water): 8 mM (≈ 2320 µg/mL)
NS(=O)(=O)C1=NN2C(=NC(=O)NS2(=O)=O)S1	50 nM	0 mmHg	–

Reference: ChEMBL document CHEMBL1123893, “Synthesis and physicochemical properties of thiadiazolo[3,2-a]pyrimidinesulfonamides and thiadiazolo[3,2-a]triazinesulfonamides as candidates for topically effective carbonic anhydrase inhibitors” (J Med Chem, 1987)
